Entries after “also recorded” stand apart in the source; their conditions may differ.
Assays:
[1] = test system: patients suffering from constipation predominant IBS; assay: Double blind clinical test in patients with constipation predominant IBS (Rome II criteria); type: in vivo, human
From the text: Clinical effects of the medicament of the present invention on patients suffering from constipation predominant IBS were studied (in accordance with Rome II diagnosis criteria).
The test conducted here was a double blind test by two groups. […] Administration period consisted of 2-week screening and 4 week treatment. […] In addition, an ameliorating ratio of each symptom, that is, stool state, difficulty in defecation, feeling of residual stool after defecation, abdominal bloating, abdominal discomfort and abdominal pain is shown in FIG. 1

IBS patients = details: score 2 = marginal improvement, 3 = small improvement; Br J Pharm Pract 1987; cited from earlier work
[2] = 0.2 mg twice a day, 4 week treatment, 9 patients in the group

Row | Compound | Ameliorating ratio of each symptom (stool state, difficulty in defecation, residual stool feeling, abdominal bloating, discomfort, pain), FIG. 1 ([1]; 0.2 mg group compared with placebo group) | Total impression of the patients: Aggravated (number of patients) [1, 2] | Total impression of the patients: Highly effective (number of patients) [1, 2] | Total impression of the patients: Moderately effective (number of patients) [1, 2] | Total impression of the patients: Not effective (number of patients) [1, 2] | Total impression of the patients: Slightly effective (number of patients) [1, 2] | Effectiveness relative to the placebo group ([1]; 0.2 mg twice a day, 4 weeks) | Ratio of effectiveness (total percentage of highly effective and moderately effective cases) ([1]; 0.2 mg twice a day, 4 weeks, placebo group 30%) | Mean subjective score (IBS patients)
1 | O=C(N[C@H]1CN2CCC1CC2)c1cnc2ccsc2c1O [the medicament of the present invention, (R)-N-(1-azabicyclo[2.2.2]oct-3-yl)-7-hydroxythieno[3,2-b]-pyridine-6-carboxamide] | exhibited an ameliorating ratio exceeding the placebo group in any symptoms | 0 | 0 | 5 | 2 | 2 | about twice; also recorded: about two fold | 56% | 
2 | sennoside |  |  |  |  |  |  |  |  | 2.7
